Data as given in ChEMBL document CHEMBL3585266, “New matrix metalloproteinase inhibitors based on γ-fluorinated α-aminocarboxylic and α-aminohydroxamic acids” (Bioorg Med Chem, 2015).

Columns and labels:
[1] = molecular target: 72 kDa type IV collagenase (Homo sapiens, UniProt P08253)
Description: Inhibition of human active MMP2 using (7-methoxycoumarin-4-yl) acetyl pro-Leu-Gly-Leu-[3-(2,4-dinitrophenyl)-L-2,3-diamino-propionyl]-Ala-Arg-NH2 fluorogenic substrate assessed as fluorescent product release

[2] = molecular target: Matrix metalloproteinase-9 (Homo sapiens, UniProt P14780); experiment: Inhibition of human active MMP9 using (7-methoxycoumarin-4-yl) acetyl pro-Leu-Gly-Leu-[3-(2,4-dinitrophenyl)-L-2,3-diamino-propionyl]-Ala-Arg-NH2 fluorogenic substrate assessed as fluorescent product release
Sequence of Matrix metalloproteinase-9 (P14780 whole entry): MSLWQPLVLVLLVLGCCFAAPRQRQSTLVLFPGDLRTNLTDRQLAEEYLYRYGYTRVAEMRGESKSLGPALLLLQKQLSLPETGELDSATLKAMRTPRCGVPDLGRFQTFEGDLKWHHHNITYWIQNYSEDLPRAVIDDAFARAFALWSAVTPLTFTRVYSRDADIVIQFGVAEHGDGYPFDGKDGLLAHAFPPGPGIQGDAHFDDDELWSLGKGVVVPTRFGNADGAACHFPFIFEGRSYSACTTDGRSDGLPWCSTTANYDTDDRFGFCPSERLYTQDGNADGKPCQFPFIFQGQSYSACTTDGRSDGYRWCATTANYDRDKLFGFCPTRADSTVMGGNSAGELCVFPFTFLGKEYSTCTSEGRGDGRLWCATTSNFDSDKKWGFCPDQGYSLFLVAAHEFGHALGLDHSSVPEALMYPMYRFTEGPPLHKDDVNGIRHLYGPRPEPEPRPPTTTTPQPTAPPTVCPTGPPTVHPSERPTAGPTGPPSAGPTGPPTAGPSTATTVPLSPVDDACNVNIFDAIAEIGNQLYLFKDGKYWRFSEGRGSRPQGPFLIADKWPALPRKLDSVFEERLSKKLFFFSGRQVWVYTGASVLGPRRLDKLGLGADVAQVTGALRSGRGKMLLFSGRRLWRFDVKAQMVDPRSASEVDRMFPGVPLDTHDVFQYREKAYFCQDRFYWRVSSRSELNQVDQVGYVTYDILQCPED

Sequence of 72 kDa type IV collagenase (P08253 whole entry): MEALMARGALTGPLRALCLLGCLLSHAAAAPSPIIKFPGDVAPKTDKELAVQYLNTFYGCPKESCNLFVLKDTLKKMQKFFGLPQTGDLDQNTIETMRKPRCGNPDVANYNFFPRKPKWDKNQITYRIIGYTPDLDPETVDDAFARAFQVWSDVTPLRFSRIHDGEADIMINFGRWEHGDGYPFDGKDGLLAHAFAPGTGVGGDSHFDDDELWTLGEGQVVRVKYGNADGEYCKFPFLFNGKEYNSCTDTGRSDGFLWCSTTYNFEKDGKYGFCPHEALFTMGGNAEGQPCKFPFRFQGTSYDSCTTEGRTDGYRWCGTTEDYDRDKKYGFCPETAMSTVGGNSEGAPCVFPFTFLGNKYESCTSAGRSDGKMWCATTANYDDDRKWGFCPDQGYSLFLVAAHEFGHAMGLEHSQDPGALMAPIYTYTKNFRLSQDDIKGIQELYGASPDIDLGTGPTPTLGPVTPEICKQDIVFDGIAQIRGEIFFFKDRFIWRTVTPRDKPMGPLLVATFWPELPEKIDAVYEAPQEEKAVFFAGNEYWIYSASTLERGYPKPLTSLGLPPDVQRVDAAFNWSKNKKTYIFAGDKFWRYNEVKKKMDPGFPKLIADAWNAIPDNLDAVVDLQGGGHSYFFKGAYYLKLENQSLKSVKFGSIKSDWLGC

IC50 [1] [nM]	IC50 [2] [nM]	Compound
> 100000	> 100000	COc1ccc(S(=O)(=O)N(Cc2cccnc2)[C@H](CCF)C(=O)O)cc1
> 100000	> 100000	C=CC[C@@H](C(=O)O)N(Cc1cccnc1)S(=O)(=O)c1ccc(OC)cc1
2100	1700	C=CC[C@H](C(=O)O)N(Cc1cccnc1)S(=O)(=O)c1ccc(OC)cc1
2	4.6	CC[C@H](C(=O)NO)N(Cc1cccnc1)S(=O)(=O)c1ccc(OC)cc1
3.9	0.54	C=CC[C@H](C(=O)NO)N(Cc1cccnc1)S(=O)(=O)c1ccc(OC)cc1

Second part, the molecule before the results:

Compound	IC50 [1] [nM]	IC50 [2] [nM]
C=C(F)C[C@@H](C(=O)O)N(Cc1cccnc1)S(=O)(=O)c1ccc(OC)cc1	> 100000	> 100000
C=C(F)C[C@H](C(=O)O)N(Cc1cccnc1)S(=O)(=O)c1ccc(OC)cc1	35700	> 100000
C=C(F)C[C@@H](C(=O)NO)N(Cc1cccnc1)S(=O)(=O)c1ccc(OC)cc1	7.2	4.9
COc1ccc(S(=O)(=O)N(Cc2cccnc2)[C@@H](CCF)C(=O)O)cc1	34700	> 100000
CC[C@@H](C(=O)O)N(Cc1cccnc1)S(=O)(=O)c1ccc(OC)cc1	> 100000	> 100000
C=CC[C@@H](C(=O)NO)N(Cc1cccnc1)S(=O)(=O)c1ccc(OC)cc1	6.3	6.4
CC[C@@H](C(=O)NO)N(Cc1cccnc1)S(=O)(=O)c1ccc(OC)cc1	1400	700
COc1ccc(S(=O)(=O)N(Cc2cccnc2)[C@H](CCF)C(=O)NO)cc1	6.4	12.3
C=C(F)C[C@H](C(=O)NO)N(Cc1cccnc1)S(=O)(=O)c1ccc(OC)cc1	9.3	8.3
CC[C@H](C(=O)O)N(Cc1cccnc1)S(=O)(=O)c1ccc(OC)cc1	10300	8800
